ChEMBL document CHEMBL1201862, “PubChem BioAssay data set” (2004)
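Cells were grown in 96-well plates and exposed to each compound for 48 hours at five concentrations; endpoints were interpolated linearly between bracketing concentrations, or set to the highest concentration if not reached. The concentration for 50% growth inhibition is given as GI50.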 Activity calls are given as the source filed them. Cut-off read from the data, not from the text of the source: active = GI50 up to about 1.1 µM and inactive = higher. Where a SMILES comes first, the peptide text is derived from it. [ ]: non-standard residue; d: D form. The star is where a group is joined. ξ: configuration not given here. X38 = O=C(OCc1ccccc1)[C@@H]1CCC[C@H]1N*; Fmoc = O=C(OCC1c2ccccc2-c2ccccc21)*; ξW = NC(Cc1c[nH]c2ccccc12)C(=O)O; ξNMe2Val = CC(C)C(C(=O)*)N(C)C; NMeV = CN[CH](C(=O)O)C(C)C; ξF = NC(Cc1ccccc1)C(=O)O; Boc = CC(C)(C)OC(=O)*; NHBn = c1ccc(CN*)cc1; ξK = NCCCCC(N)C(=O)O; ξT = CC(O)C(N)C(=O)O; tBu = CC(C)(C)*

Assays:
Test in all cases: inhibition of tumour cell growth, NCI panel, 48 h
BT-549 = system: BT-549
NCI-H226 = system: NCI-H226
K562 = system: K562
NCI-H522 = system: NCI-H522
SNB-19 = system: SNB-19
HT-29 = system: HT-29
PC-3 = system: PC-3
RXF 393 = system: RXF 393
OVCAR-8 = system: OVCAR-8
NCI-H23 = system: NCI-H23
MDA-MB-231 = system: MDA-MB-231
A498 = system: A498
MOLT-4 = system: MOLT-4
IGROV-1 = system: IGROV-1
SF-268 = system: SF-268
SW-620 = system: SW-620
SR = system: SR
ACHN = system: ACHN
UACC-62 = system: UACC-62
COLO 205 = system: COLO 205
HCT-116 = system: HCT-116
HCC 2998 = system: HCC 2998
786-0 = system: 786-0
SN12C = system: SN12C
EKVX = system: EKVX
SK-OV-3 = system: SK-OV-3
KM12 = system: KM12
SF-295 = system: SF-295
DU-145 = system: DU-145
Hs-578T = system: Hs-578T
SK-MEL-5 = system: SK-MEL-5
A549 = system: A549
U-251 = system: U-251
NCI-H460 = system: NCI-H460
SF-539 = system: SF-539
NCI/ADR-RES = system: NCI/ADR-RES
HCT-15 = system: HCT-15
SNB-75 = system: SNB-75
RPMI-8226 = system: RPMI-8226
LOX IMVI = system: LOX IMVI
MDA-MB-435 = system: MDA-MB-435
CCRF-CEM = system: CCRF-CEM
CAKI-1 = system: CAKI-1
UACC-257 = system: UACC-257
OVCAR-4 = system: OVCAR-4
OVCAR-5 = system: OVCAR-5
M14 = system: M14
UO-31 = system: UO-31
Malme-3M = system: Malme-3M
HL-60 = system: HL-60
HOP-92 = system: HOP-92
HOP-62 = system: HOP-62
SK-MEL-2 = system: SK-MEL-2
MDA-N = system: MDA-N
TK-10 = system: TK-10
T47D = system: T47D
OVCAR-3 = system: OVCAR-3
SK-MEL-28 = system: SK-MEL-28
MCF7 = system: MCF7

CC(C)C(NC(=O)C(C(C)C)N(C)C)C(=O)N(C)C(C(=O)N1CCCC1C(=O)N1CCCC1C(=O)NCc1ccccc1)C(C)C (stereo unspecified) (ξNMe2Val-V[NMeV]PP-NHBn; configuration not given here)
GI50 (BT-549): < 0.0001 µM (active)
GI50 (NCI-H226): < 0.0001 µM (active)
GI50 (K562): 0.001 µM (active)
GI50 (NCI-H522): < 0.01 µM (active)
GI50 (SNB-19): < 0.01 µM (active)
GI50 (HT-29): < 0.0001 µM (active)
GI50 (PC-3): < 0.0001 µM (active)
GI50 (RXF 393): 0.0175 µM (active)
GI50 (OVCAR-8): < 0.0001 µM (active)
GI50 (NCI-H23): < 0.0001 µM (active)
GI50 (MDA-MB-231): < 0.0001 µM (active)
GI50 (A498): < 0.01 µM (active)
GI50 (MOLT-4): < 0.0001 µM (active)
GI50 (IGROV-1): < 0.0001 µM (active)
GI50 (SF-268): < 0.0001 µM (active)
GI50 (SW-620): < 0.0001 µM (active)
GI50 (SR): < 0.0001 µM (active)
GI50 (ACHN): < 0.0001 µM (active)
GI50 (UACC-62): < 0.0001 µM (active)
GI50 (COLO 205): < 0.0001 µM (active)
GI50 (HCT-116): < 0.0001 µM (active)
GI50 (HCC 2998): < 0.0001 µM (active)
GI50 (786-0): < 0.0001 µM (active)
GI50 (SN12C): < 0.0001 µM (active)
GI50 (EKVX): 0.0187 µM (active)
GI50 (SK-OV-3): 0.000221 µM (active)
GI50 (KM12): < 0.0001 µM (active)
GI50 (SF-295): < 0.0001 µM (active)
GI50 (DU-145): < 0.0001 µM (active)
GI50 (Hs-578T): < 0.0001 µM (active)
GI50 (SK-MEL-5): < 0.0001 µM (active)
GI50 (A549): < 0.0001 µM (active)
GI50 (U-251): < 0.0001 µM (active)
GI50 (NCI-H460): < 0.0001 µM (active)
GI50 (SF-539): < 0.01 µM (active)
GI50 (NCI/ADR-RES): 0.00179 µM (active)
GI50 (HCT-15): < 0.0001 µM
GI50 (SNB-75): 0.172 µM (active)
GI50 (RPMI-8226): < 0.0001 µM (active)
GI50 (LOX IMVI): < 0.0001 µM (active)
GI50 (MDA-MB-435): < 0.0001 µM (active)
GI50 (CCRF-CEM): < 0.0001 µM (active)
GI50 (CAKI-1): < 0.0001 µM (active)
GI50 (UACC-257): < 0.0001 µM (active)
GI50 (OVCAR-4): 15.7 µM (inactive)
GI50 (OVCAR-5): 0.0675 µM (active)
GI50 (M14): < 0.0001 µM (active)
GI50 (UO-31): 0.0015 µM (active)
GI50 (Malme-3M): < 0.01 µM (active)
GI50 (HL-60): < 0.0001 µM (active)
GI50 (HOP-92): < 0.0001 µM (active)
GI50 (HOP-62): < 0.0001 µM (active)
GI50 (SK-MEL-2): < 0.0001 µM (active)
GI50 (MDA-N): < 0.0001 µM (active)

CC(OC(C)(C)C)C(NC(=O)C(CCCCNC(=O)OC(C)(C)C)NC(=O)C(Cc1c[nH]c2ccccc12)NC(=O)C(Cc1ccccc1)NC(=O)OCC1c2ccccc2-c2ccccc21)C(=O)NC(Cc1ccccc1)C(=O)N[C@@H]1CCC[C@H]1C(=O)OCc1ccccc1 (stereo partly specified) (Fmoc-[ξF][ξW][ξK](Boc)[ξT](tBu)[ξF]-X38)
GI50 (NCI-H226): > 100 µM (inactive)
GI50 (K562): > 100 µM (inactive)
GI50 (NCI-H522): > 100 µM (inactive)
GI50 (HT-29): > 100 µM (inactive)
GI50 (PC-3): > 100 µM (inactive)
GI50 (RXF 393): > 100 µM (inactive)
GI50 (OVCAR-8): > 100 µM (inactive)
GI50 (NCI-H23): > 100 µM (inactive)
GI50 (MDA-MB-231): 65.3 µM (inactive)
GI50 (A498): > 10 µM (inactive)
GI50 (MOLT-4): > 100 µM (inactive)
GI50 (IGROV-1): > 100 µM (inactive)
GI50 (SF-268): > 100 µM (inactive)
GI50 (SW-620): > 100 µM (inactive)
GI50 (SR): > 100 µM (inactive)
GI50 (ACHN): > 100 µM (inactive)
GI50 (UACC-62): > 100 µM (inactive)
GI50 (TK-10): > 100 µM (inactive)
GI50 (COLO 205): > 100 µM (inactive)
GI50 (HCT-116): > 100 µM (inactive)
GI50 (HCC 2998): > 100 µM (inactive)
GI50 (786-0): > 100 µM (inactive)
GI50 (T47D): > 100 µM (inactive)
GI50 (SN12C): > 100 µM (inactive)
GI50 (EKVX): > 100 µM (inactive)
GI50 (SK-OV-3): > 100 µM (inactive)
GI50 (KM12): > 100 µM (inactive)
GI50 (SF-295): > 100 µM (inactive)
GI50 (DU-145): > 100 µM (inactive)
GI50 (Hs-578T): 31 µM (inactive)
GI50 (SK-MEL-5): 14.6 µM (inactive)
GI50 (OVCAR-3): > 100 µM (inactive)
GI50 (SK-MEL-28): > 100 µM (inactive)
GI50 (A549): > 100 µM (inactive)
GI50 (U-251): > 100 µM (inactive)
GI50 (NCI-H460): > 100 µM (inactive)
GI50 (SF-539): > 100 µM (inactive)
GI50 (NCI/ADR-RES): > 100 µM (inactive)
GI50 (HCT-15): > 100 µM
GI50 (MCF7): > 100 µM (inactive)
GI50 (SNB-75): > 100 µM (inactive)
GI50 (RPMI-8226): > 100 µM (inactive)
GI50 (LOX IMVI): > 100 µM (inactive)
GI50 (MDA-MB-435): > 100 µM (inactive)
GI50 (CCRF-CEM): > 100 µM (inactive)
GI50 (CAKI-1): 62.2 µM (inactive)
GI50 (UACC-257): > 100 µM (inactive)
GI50 (OVCAR-4): > 100 µM (inactive)
GI50 (OVCAR-5): > 100 µM (inactive)
GI50 (M14): 38.9 µM (inactive)
GI50 (UO-31): > 100 µM (inactive)
GI50 (Malme-3M): > 100 µM (inactive)
GI50 (HL-60): > 100 µM (inactive)
GI50 (HOP-92): > 100 µM (inactive)
GI50 (HOP-62): > 100 µM (inactive)
GI50 (SK-MEL-2): 32.1 µM (inactive)
GI50 (MDA-N): > 100 µM (inactive)
